# Measured values published in patent US20210254056A1, “IDENTIFICATION AND TARGETED MODULATION OF GENE SIGNALING NETWORKS” (CAMP4 THERAPEUTICS CORPORATION, priority 2017, published 2021).
# Tests used:
# [1] = test system: primary human hepatocytes; assay: qRT-PCR validation of gene expression in hepatocytes from a second donor; format: cell-based
# Experimental: qRT-PCR was performed on samples of primary human hepatocytes from a second donor. […] The 58 liver disease associated genes analyzed were ACADVL, ACAT2, ACSL1, ACSL5, AGPAT2, AGTR1, AHSG, ALAS1, AMACR, ANGPTL2, ARG1, CA12, CA2, CIDEC, COL1A1, CPS1, CPT1A, CPT2, CYP21A2, CYP2C19, CYP3A4, CYP7A1, ECH1, ENO3, ETFDH, FABP1, FABP6, G6PC, GHR, GLA, GYS2, HGD, HMGCR, HMGCS2, HMOX1, HOGA1, HPGD, IFT27, LDHA, LPIN2, MOGAT2, NCF2, PCSK9, POR, RMRP, SLC25A20, SLC2A2, SLC37A4, SLC51B, SLC6A20, SLC6A6, SOAT2, SULT2A1, TAT, TDO2, TMEM135, TNFSF11, and VLDLR as shown in Example 2.
# [2] = test system: primary human hepatocytes; assay: RNA-seq of primary human hepatocytes treated with 39 small molecules (pilot and validation); details: for RNA-seq fold Δ (Log2): primary human hepatocytes; for Expected fold Δ: fold expected from RNA-seq Log2
compound,measurement,setting,value
CCOC(=O)N1c2ccc(C(F)(F)F)cc2[C@@H](N(Cc2cc(C(F)(F)F)cc(C(F)(F)F)c2)C(=O)OC)C[C@H]1CC [Torcetrapib],Fold Δ,[1]; ACAT2 gene,2.87 fold
same,Fold Δ,[1]; CYP7A1 gene,0.85 fold
same,Fold Δ,[1]; HMGCR gene,4.02 fold
same,Fold Δ,[1]; PCSK9 gene,5.76 fold
same,Fold Δ,[1]; TNFS11 gene,1.01 fold
same,RNA-seq fold Δ (Log2),[2]; ACAT2 gene,1.22 Log2
same,Expected fold Δ,[2]; ACAT2 gene,2.33 fold
same,RNA-seq fold Δ (Log2),[2]; CYP7A1 gene,−1.42 Log2
same,Expected fold Δ,[2]; CYP7A1 gene,0.37 fold
same,RNA-seq fold Δ (Log2),[2]; HMGCR gene,1.26 Log2
same,Expected fold Δ,[2]; HMGCR gene,2.39 fold
same,RNA-seq fold Δ (Log2),[2]; PCSK9 gene,1.07 Log2
same,Expected fold Δ,[2]; PCSK9 gene,2.10 fold
same,RNA-seq fold Δ (Log2),[2]; TNFS11 gene,1.09 Log2
same,Expected fold Δ,[2]; TNFS11 gene,2.13 fold
